Source: PubChem BioAssay (NCI)
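Five compound concentrations were applied to cells in 96-well plates for 48 hours; endpoints were derived by simple linear interpolation of the resulting dose-response curve. TGI marks complete inhibition of growth.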

Key:
Assay in all cases: DTP human tumour cell line panel, 48 h
OVCAR-5 ovarian = test system: OVCAR-5 ovarian
ACHN renal = test system: ACHN renal
M14 melanoma = test system: M14 melanoma
SNB-19 CNS = test system: SNB-19 CNS
A498 renal = test system: A498 renal
SW-620 colon = test system: SW-620 colon
CAKI-1 renal = test system: CAKI-1 renal
KM12 colon = test system: KM12 colon
UACC-257 melanoma = test system: UACC-257 melanoma
HOP-92 NSCLC = test system: HOP-92 NSCLC
HOP-62 NSCLC = test system: HOP-62 NSCLC
IGROV1 ovarian = test system: IGROV1 ovarian
U251 CNS = test system: U251 CNS
K-562 leukemia = test system: K-562 leukemia
TK-10 renal = test system: TK-10 renal
LOX IMVI melanoma = test system: LOX IMVI melanoma
COLO 205 colon = test system: COLO 205 colon
RPMI-8226 leukemia = test system: RPMI-8226 leukemia
SF-295 CNS = test system: SF-295 CNS
OVCAR-8 ovarian = test system: OVCAR-8 ovarian

Compound | TGI (OVCAR-5 ovarian) [µM] | TGI (ACHN renal) [µM] | TGI (M14 melanoma) [µM] | TGI (SNB-19 CNS) [µM] | TGI (A498 renal) [µM] | TGI (SW-620 colon) [µM] | TGI (CAKI-1 renal) [µM] | TGI (KM12 colon) [µM] | TGI (UACC-257 melanoma) [µM] | TGI (HOP-92 NSCLC) [µM] | TGI (HOP-62 NSCLC) [µM] | TGI (IGROV1 ovarian) [µM] | TGI (U251 CNS) [µM] | TGI (K-562 leukemia) [µM] | TGI (TK-10 renal) [µM] | TGI (LOX IMVI melanoma) [µM] | TGI (COLO 205 colon) [µM] | TGI (RPMI-8226 leukemia) [µM] | TGI (SF-295 CNS) [µM] | TGI (OVCAR-8 ovarian) [µM]
COc1ccc(-c2c3c(nc4nc(SC)nc(SC)c24)CCCC3)cc1OC | > 100 | > 100 | > 100 | > 100 | > 100 | > 100 | > 100 | > 100 | > 100 | > 100 | > 100 | > 100 | > 100 | > 100 | > 100 | > 100 | > 100 | > 100 | > 100 | –
CC1OC1C(=O)C1(O)C(C)C(O)C23OC2(C(O)c2c(O)cccc2C3=O)C1O (centres undefined) | 3.08 | – | – | 0.742 | 1.2 | 1.21 | 0.253 | 1.04 | 0.714 | 0.0971 | 0.462 | 0.775 | 1.09 | 0.776 | – | 0.629 | 0.223 | 0.73 | 0.693 | 1.72
Cc1ccc(Nc2nc(NS(=O)(=O)c3cc(C(=O)Nc4ccc(Cl)cc4)c(Cl)cc3S)n[nH]2)cc1 | > 100 | > 100 | > 100 | > 100 | – | > 100 | > 100 | > 100 | > 100 | – | > 100 | > 100 | > 100 | > 100 | > 100 | > 100 | > 100 | > 100 | > 100 | > 100
O=C(NN1C(=O)CSC1c1ccc(C(F)(F)F)cc1)c1ccncc1 (centres undefined) | > 100 | – | – | > 100 | > 31.6 | > 100 | > 100 | > 100 | > 100 | > 100 | > 100 | > 100 | > 100 | > 100 | – | > 100 | – | > 100 | > 100 | > 100
CN1CCN(c2cc(-c3cc4ccccc4o3)oc(=O)c2C#N)CC1 | > 100 | > 100 | > 100 | > 100 | > 100 | > 100 | > 100 | > 100 | > 100 | – | – | > 100 | > 100 | > 100 | > 100 | > 100 | > 100 | > 100 | > 100 | > 100
CC(c1ccccc1)/[N+]([O-])=C/c1ccccc1 (centres undefined) | > 100 | > 100 | – | > 100 | > 100 | > 100 | – | > 100 | > 100 | > 100 | > 100 | > 100 | > 100 | > 100 | > 100 | > 100 | > 100 | > 100 | > 100 | > 100
NC(=S)N/N=C1\c2ccccc2CCC1CCC1(O)CCc2ccccc2C1=O (centres undefined) | 74.2 | > 100 | 38 | > 100 | – | > 100 | > 100 | > 100 | 33.3 | – | > 100 | > 100 | > 100 | – | 54.3 | 44.3 | 36.7 | 70.4 | 59 | 35.1
CCc1nnc(-c2nsc3ccccc23)s1 | > 100 | > 100 | > 100 | > 100 | – | > 100 | – | > 100 | > 100 | > 100 | > 100 | > 100 | > 100 | > 100 | > 100 | > 100 | > 100 | > 100 | – | > 100
CCOP(=O)(CN=C(c1ccccc1)c1ccccc1)OCC | > 100 | > 100 | > 100 | > 100 | > 100 | > 100 | > 100 | – | > 100 | > 100 | > 100 | > 100 | > 100 | > 100 | > 100 | > 100 | > 100 | > 100 | > 100 | > 100
